In patent US20080125432A1 (Devgen NV, priority 2004, published 2008):

What was measured:
isolated rat left atria = test: Ex-vivo organ study: functional refractory period in isolated rat left atria; conditions: conc 10^−5 mol/l
From the text: (§1) The compounds were checked for their effect on the force of contraction, stimulation threshold and for the Functional Refractory Period (FRP) in isolated rat left atria (Rat LA). Rat left atria functionally express the Kv4.3 ion channel, producing the Ito current of the action potential. […] The guinea pig action potential is dominated by hERG like ion channels for the refractory currents. Consequently, activity of hERG channels in vivo should be seen in GP pap muscle preparations.
Left atria were mounted vertically in a two-chambered organ bath containing 100 ml of buffer solution (in mM: NaH2PO4 0.6, MgSO4 0.6, KCl 4.7, NaHCO3 25, glucose 4.5, NaCl-120, CaCl2 2.4). […] The isometric force of the preparations was measured by force transducers, connected to amplifiers, documented by a pen recorder and fed into a computer for evaluation. Force of contraction (FC), threshold stimulus (TS) and the functional refractory period (FRP) were measured at baseline (pre), 20 min after addition of compound, and after washout at the end of the experiment. Threshold stimulus, representing excitability of the tissue, was assessed by varying the voltage applied for electrical stimulation. […] The functional refractory period, representing the time needed for repolarization, was assessed by applying extra stimuli at varying time intervals from the preceding regular pacing stimulus. […]

[1] = system: isolated guinea pig right ventricular papillary muscle; test: Ex-vivo organ study: functional refractory period in isolated guinea pig right ventricular papillary muscle; conditions: conc 10^−5 mol/l
From the text: as §1
Method: Rat LA (Same Method Applies to GP pap. Muscle)
Left atria were mounted vertically in a two-chambered organ bath containing 100 ml of buffer solution (in mM: NaH2PO4 0.6, MgSO4 0.6, KCl 4.7, NaHCO3 25, glucose 4.5, NaCl-120, CaCl2 2.4). The solution was saturated with and circulated by a gas mixture containing 95% O2 and 5% CO2. The temperature was kept constant at 30° C. […] The isometric force of the preparations was measured by force transducers, connected to amplifiers, documented by a pen recorder and fed into a computer for evaluation. Force of contraction (FC), threshold stimulus (TS) and the functional refractory period (FRP) were measured at baseline (pre), 20 min after addition of compound, and after washout at the end of the experiment. Threshold stimulus, representing excitability of the tissue, was assessed by varying the voltage applied for electrical stimulation. […]

[2] = system: Isus (Kv1.5 + additional channels); test: Whole-cell patch clamp in human atrial myocytes: Isus; format: cell-based; conditions: n = 3 cells
Method: The blocking profile of the compounds of the invention is determined on the following channels of the human atrial myocytes: INa, Ito, Isus and IK1 channel currents.
Human atrial myocytes: Myocytes were prepared from specimens with grossly normal anatomical aspect, excised from hearts of patients with normal P-wave electrocardiogram, undergoing bypass surgery. Human atrial sample were obtained following approval by the ethical committee. […]
Experiments were performed at room temperature (20-25° C.) for INa and at 32-34° C. for Ito, Isus, IK1. Currents were measured using the whole-cell variant of the patch clamp method. […]
After rupture of the cell membrane to enter the whole-cell mode, current amplitude and kinetics were allowed to stabilize for 3-7 min before initiating the experimental procedure. K^+ currents recorded from human atrial myocytes were elicited by a 500 ms pulse to +60 mV from a holding potential of −50 mV for Ito and Isus. Ito was measured as a peak current amplitude whereas Isus as a current present at the end of the 500 ms voltage pulse. In addition, the area under the curve, before and after compound, were measured over the course of the pulse period. […]

## COc1ccccc1Nc1nc(C)c(C(=O)N[C@H]2CCC[C@@H]2OCc2ccccc2)s1 [Compound 68, 2-(2-methoxy-phenylamino)-4-methyl-thiazole-5-carboxylic acid (1S,2S)-2-(benzyloxycyclopent-1-yl) amide]
Isolated rat left atria
  dFRP Rat: 13 ms
[1]
  dFRP Guinea Pig: 0 ms
[2]
  Block at 10 μM in %: Isus (Kv1.5 + additional channels): 55.2 ± 6.4%
